Source: ChEMBL document CHEMBL5465560, “Selectivity Literature for EUbOPEN Chemogenomic Library” (2024)

Tests used:
[1] = target: Mitogen-activated protein kinase kinase kinase 14 (Homo sapiens) (UniProt Q99558); assay: Selectivity interaction (KinomeScan (DiscoverX)) EUB0000229b MAP3K14; conditions: at 10 µM
[2] = target: Interleukin-1 receptor-associated kinase 1 (Homo sapiens) (UniProt P51617); assay: Selectivity interaction (KinomeScan (DiscoverX)) EUB0000595a IRAK1; conditions: at 10 µM
[3] = target: Serine/threonine-protein kinase/endoribonuclease IRE1 (Homo sapiens) (UniProt O75460); assay: Selectivity interaction (KinomeScan (DiscoverX)) EUB0000695a ERN1; conditions: at 100 nM
[4] = target: Calcium/calmodulin-dependent protein kinase type II subunit gamma (Homo sapiens) (UniProt Q13555); assay: Selectivity interaction (KinomeScan (DiscoverX)) EUB0001079a CAMK2G; conditions: at 1 µM
Sequence of Calcium/calmodulin-dependent protein kinase type II subunit gamma (Homo sapiens) (Q13555 whole entry): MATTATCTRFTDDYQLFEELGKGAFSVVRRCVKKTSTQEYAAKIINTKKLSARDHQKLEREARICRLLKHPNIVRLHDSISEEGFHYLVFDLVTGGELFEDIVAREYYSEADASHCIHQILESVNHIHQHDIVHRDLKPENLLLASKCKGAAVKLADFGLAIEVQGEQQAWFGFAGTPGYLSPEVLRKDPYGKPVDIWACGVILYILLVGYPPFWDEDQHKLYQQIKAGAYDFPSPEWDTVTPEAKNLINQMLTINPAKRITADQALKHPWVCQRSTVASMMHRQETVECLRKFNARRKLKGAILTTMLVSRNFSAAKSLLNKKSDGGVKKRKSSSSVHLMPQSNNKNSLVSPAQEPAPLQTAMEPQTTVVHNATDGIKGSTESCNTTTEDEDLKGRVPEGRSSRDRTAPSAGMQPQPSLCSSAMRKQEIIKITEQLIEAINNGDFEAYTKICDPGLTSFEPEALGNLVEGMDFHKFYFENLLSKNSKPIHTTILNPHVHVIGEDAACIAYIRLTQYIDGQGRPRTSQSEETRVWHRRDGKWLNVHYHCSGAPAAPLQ

[5] = target: Cyclin-dependent kinase-like 3 (Homo sapiens) (UniProt Q8IVW4); assay: Selectivity interaction (KinomeScan (DiscoverX)) EUB0001079a CDKL3; conditions: at 1 µM
Sequence of Cyclin-dependent kinase-like 3 (Homo sapiens) (Q8IVW4 whole entry, looked up): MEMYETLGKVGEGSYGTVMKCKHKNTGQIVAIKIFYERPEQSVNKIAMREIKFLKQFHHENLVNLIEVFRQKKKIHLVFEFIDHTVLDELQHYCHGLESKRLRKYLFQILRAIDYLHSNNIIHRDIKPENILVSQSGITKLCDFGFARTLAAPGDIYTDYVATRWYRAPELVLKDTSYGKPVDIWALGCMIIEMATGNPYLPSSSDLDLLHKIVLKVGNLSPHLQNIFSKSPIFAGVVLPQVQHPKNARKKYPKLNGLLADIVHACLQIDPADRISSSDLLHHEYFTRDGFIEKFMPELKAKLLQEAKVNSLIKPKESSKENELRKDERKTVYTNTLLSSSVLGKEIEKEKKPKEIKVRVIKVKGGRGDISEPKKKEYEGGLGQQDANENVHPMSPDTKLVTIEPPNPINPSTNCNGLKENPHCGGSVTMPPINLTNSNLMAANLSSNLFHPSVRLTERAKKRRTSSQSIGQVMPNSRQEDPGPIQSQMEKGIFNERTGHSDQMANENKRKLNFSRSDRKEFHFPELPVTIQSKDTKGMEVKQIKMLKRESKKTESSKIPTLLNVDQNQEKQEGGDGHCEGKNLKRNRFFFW

[6] = target: T1, Ephrin type-A receptor 6 (Homo sapiens) (UniProt Q9UF33); assay: Selectivity interaction (LanthaScreen Eu Kinase Binding Assay) EUB0001632a EPHA6; conditions: at 10 µM
T1 sequence (whole entry): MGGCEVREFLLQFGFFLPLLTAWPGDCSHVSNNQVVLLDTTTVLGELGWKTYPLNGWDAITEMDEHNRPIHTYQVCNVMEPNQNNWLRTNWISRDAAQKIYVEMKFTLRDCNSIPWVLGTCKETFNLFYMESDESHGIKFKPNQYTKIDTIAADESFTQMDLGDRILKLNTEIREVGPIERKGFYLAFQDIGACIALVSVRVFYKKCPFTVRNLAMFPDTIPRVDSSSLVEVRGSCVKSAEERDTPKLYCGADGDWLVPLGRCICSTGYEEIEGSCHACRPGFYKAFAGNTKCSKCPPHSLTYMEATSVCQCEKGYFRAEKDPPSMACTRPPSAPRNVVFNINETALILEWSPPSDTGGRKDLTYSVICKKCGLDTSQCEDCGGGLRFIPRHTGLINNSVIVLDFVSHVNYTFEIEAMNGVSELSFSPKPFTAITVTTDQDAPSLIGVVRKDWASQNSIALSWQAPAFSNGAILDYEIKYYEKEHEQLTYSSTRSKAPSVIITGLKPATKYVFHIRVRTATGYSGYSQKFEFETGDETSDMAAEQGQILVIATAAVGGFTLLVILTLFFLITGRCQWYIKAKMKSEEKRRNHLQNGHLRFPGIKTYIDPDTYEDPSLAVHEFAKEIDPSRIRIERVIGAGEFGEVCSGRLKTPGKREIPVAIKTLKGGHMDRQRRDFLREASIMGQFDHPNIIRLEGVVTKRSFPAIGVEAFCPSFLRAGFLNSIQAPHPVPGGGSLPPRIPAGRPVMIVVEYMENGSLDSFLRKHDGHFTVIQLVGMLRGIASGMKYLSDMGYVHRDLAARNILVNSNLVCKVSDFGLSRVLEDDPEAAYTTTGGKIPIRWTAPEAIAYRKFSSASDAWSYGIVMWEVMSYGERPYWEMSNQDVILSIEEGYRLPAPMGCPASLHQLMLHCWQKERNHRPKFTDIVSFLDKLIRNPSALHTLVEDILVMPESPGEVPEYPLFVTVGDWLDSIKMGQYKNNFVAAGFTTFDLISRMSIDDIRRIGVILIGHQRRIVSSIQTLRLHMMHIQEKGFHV

[7] = target: T2, Interleukin-1 receptor-associated kinase 3 (Homo sapiens) (UniProt Q9Y616); assay: Selectivity interaction (LanthaScreen Eu Kinase Binding Assay) EUB0001632a IRAK3; conditions: at 10 µM
T2 sequence (whole entry): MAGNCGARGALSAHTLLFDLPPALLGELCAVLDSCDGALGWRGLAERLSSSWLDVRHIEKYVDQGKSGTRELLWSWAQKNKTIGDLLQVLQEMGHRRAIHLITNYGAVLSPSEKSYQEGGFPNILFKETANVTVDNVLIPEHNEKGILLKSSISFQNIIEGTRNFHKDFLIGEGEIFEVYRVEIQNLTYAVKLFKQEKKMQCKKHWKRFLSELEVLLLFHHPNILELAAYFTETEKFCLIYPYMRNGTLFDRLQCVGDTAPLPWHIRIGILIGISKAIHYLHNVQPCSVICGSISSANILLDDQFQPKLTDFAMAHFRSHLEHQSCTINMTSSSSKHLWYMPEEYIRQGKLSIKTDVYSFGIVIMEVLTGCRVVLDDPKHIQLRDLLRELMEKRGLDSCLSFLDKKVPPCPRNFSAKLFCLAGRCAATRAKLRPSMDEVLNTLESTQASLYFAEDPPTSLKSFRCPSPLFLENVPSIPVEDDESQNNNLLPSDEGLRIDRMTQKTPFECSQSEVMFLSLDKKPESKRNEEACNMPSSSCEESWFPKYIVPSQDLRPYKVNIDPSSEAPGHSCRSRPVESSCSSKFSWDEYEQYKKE

[8] = target: T3, Serine/threonine-protein kinase 17B (Homo sapiens) (UniProt O94768); assay: Selectivity interaction (KinomeScan (DiscoverX)) EUB0000666a STK17B; conditions: at 10 µM
T3 sequence (whole entry): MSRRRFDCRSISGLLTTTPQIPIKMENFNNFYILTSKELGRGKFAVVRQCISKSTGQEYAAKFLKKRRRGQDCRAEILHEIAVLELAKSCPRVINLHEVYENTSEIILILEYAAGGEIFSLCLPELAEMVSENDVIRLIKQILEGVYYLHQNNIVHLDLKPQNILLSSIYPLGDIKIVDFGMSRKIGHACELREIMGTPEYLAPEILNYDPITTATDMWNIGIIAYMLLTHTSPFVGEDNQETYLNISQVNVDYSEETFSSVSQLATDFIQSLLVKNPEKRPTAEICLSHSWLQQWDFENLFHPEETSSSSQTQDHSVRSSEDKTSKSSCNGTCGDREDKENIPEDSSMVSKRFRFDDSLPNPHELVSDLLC

[9] = target: Tyrosine-protein kinase Lyn (Homo sapiens, UniProt P07948); assay: Selectivity interaction (KinaseProfiler screening (Millipore)) EUB0000601a LYN; conditions: at 3 µM
Sequence of Tyrosine-protein kinase Lyn (P07948 2-512 limits assumed): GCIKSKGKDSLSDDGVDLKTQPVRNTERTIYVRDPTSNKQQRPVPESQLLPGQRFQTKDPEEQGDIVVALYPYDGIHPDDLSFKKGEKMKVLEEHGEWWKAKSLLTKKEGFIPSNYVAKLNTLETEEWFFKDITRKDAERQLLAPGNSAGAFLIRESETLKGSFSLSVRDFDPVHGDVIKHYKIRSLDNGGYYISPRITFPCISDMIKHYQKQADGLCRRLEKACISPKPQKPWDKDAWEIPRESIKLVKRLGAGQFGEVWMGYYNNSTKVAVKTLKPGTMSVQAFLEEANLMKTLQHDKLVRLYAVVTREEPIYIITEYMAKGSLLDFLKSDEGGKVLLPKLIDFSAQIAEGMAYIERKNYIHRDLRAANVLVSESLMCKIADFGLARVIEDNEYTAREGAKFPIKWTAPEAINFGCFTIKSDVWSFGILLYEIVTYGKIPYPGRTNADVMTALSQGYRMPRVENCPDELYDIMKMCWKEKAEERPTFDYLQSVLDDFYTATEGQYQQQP

[10] = target: RAC-gamma serine/threonine-protein kinase (Homo sapiens, UniProt Q9Y243); assay: Selectivity interaction (SelectScreen profiling (Invitrogen)) EUB0000607a AKT3; conditions: at 2 µM
Sequence of RAC-gamma serine/threonine-protein kinase (Q9Y243 whole entry): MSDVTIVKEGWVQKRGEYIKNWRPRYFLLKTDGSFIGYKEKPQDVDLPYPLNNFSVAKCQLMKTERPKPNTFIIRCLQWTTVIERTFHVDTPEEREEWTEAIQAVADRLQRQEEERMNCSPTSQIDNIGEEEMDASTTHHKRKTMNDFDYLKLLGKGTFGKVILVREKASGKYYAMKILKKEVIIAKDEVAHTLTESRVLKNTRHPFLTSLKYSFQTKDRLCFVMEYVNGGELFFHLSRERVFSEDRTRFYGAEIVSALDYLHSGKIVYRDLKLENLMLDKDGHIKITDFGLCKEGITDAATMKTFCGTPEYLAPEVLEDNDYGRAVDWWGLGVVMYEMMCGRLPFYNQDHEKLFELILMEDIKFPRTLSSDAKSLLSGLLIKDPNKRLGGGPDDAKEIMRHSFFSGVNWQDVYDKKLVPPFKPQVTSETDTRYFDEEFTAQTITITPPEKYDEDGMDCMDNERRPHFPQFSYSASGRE

[11] = tested on: Tyrosine-protein kinase JAK2 (Homo sapiens), O60674 [V617F]; assay: (§1) Selectivity interaction (SelectScreen profiling (Invitrogen)) EUB0000607a JAK2; conditions: at 2 µM
Sequence of Tyrosine-protein kinase JAK2 (Homo sapiens), O60674 [V617F] (O60674 whole entry V617F): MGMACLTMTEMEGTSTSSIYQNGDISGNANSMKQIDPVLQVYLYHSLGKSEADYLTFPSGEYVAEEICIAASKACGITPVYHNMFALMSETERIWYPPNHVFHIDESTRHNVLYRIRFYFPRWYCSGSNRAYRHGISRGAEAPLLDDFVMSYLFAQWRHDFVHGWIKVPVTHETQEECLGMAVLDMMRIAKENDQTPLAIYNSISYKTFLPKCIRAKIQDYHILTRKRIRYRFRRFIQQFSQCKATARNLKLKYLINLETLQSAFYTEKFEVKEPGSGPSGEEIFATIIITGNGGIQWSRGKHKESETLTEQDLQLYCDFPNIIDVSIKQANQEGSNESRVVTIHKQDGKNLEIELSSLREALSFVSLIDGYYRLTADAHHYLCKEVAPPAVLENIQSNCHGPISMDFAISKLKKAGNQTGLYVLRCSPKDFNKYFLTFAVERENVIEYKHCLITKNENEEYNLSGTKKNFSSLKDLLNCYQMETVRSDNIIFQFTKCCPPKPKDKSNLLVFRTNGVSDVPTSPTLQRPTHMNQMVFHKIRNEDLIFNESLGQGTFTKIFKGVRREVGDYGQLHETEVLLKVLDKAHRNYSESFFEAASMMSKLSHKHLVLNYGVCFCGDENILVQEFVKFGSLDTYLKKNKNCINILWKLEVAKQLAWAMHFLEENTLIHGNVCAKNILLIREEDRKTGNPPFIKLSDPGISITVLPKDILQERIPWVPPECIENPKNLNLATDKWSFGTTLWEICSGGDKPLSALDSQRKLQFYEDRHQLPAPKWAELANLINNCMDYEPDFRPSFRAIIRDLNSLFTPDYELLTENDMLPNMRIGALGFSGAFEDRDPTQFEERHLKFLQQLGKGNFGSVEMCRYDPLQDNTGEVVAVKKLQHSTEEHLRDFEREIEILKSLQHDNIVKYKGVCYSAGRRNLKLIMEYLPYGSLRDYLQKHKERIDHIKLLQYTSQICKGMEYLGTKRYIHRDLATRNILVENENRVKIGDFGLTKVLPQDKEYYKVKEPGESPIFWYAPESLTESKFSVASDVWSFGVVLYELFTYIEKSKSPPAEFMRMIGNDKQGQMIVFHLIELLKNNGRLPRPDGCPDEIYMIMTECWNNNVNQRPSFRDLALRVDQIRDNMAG

[12] = target: Tyrosine-protein kinase JAK2 (Homo sapiens, UniProt O60674); assay: as §1; conditions: at 2 µM
Sequence of Tyrosine-protein kinase JAK2 (O60674 whole entry): as the sequence (O60674 whole entry V617F) above, with F617V counted along it

Sequence of Mitogen-activated protein kinase kinase kinase 14 (Homo sapiens) (Q99558 whole entry, looked up): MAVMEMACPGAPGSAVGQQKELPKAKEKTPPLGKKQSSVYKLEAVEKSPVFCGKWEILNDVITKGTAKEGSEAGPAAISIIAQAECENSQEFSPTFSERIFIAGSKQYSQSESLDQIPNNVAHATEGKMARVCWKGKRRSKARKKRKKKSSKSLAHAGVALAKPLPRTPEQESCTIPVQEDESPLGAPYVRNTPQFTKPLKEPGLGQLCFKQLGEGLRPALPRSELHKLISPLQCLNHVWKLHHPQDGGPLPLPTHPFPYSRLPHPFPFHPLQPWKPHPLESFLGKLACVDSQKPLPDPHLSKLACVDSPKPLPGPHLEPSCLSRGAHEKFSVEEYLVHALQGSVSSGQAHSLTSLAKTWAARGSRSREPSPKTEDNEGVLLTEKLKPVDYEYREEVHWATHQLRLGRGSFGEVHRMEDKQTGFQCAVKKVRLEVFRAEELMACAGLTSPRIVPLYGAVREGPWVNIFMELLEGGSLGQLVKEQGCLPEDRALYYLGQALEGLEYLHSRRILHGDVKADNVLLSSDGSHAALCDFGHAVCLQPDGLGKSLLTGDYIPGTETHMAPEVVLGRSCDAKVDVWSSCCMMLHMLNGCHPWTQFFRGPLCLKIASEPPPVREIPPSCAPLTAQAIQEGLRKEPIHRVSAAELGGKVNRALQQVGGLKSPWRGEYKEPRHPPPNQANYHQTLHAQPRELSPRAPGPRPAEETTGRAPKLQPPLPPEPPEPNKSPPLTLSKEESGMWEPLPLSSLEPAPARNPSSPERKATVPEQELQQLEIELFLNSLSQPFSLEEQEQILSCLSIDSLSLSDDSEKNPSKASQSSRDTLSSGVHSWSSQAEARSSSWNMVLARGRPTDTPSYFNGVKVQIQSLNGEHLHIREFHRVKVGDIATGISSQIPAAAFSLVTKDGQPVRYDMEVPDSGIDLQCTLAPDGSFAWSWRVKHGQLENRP
Sequence of Interleukin-1 receptor-associated kinase 1 (Homo sapiens) (P51617 whole entry, looked up): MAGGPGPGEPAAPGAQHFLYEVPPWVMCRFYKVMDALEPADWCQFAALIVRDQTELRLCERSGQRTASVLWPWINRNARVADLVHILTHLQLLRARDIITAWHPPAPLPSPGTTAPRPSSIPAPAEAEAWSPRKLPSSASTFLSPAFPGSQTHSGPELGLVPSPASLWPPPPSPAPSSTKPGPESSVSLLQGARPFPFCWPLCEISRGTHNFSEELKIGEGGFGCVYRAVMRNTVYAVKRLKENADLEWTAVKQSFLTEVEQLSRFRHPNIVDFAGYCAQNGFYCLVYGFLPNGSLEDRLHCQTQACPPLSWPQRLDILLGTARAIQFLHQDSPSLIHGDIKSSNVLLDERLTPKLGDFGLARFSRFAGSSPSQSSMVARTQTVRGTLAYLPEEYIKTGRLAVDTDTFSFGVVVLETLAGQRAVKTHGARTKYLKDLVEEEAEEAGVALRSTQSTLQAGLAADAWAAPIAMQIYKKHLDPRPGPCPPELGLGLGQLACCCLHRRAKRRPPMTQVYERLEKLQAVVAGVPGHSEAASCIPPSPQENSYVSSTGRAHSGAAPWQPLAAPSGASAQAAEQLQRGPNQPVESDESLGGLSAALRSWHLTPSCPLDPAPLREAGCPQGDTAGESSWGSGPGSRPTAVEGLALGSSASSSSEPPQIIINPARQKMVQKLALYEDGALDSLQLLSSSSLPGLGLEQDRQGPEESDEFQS

Work on COc1cc(N(C)c2ccnc3ccc(C(F)(F)F)cc23)cc(OC)c1OC yielded a % binding [1] of 100%.
In the case of COCC(=O)NC/C=C/c1ccc2ncnc(Nc3ccc(Oc4ccc(C)nc4)c(C)c3)c2c1 [CP-724714], the % of control [2] is reported as 100%.
Work on Cc1cc(F)c(C(=O)Nc2cccc(-c3nncn3C(C)C)n2)cc1-n1cnc(C2CC2)c1 yielded a % of control [3] of 88%.
Nc1cnc(N2CCc3cc(S(=O)(=O)Nc4c(F)cc(Cl)cc4F)cc(N4CCCC4=O)c32)nc1 [TP-020n] was tested, and the % of control [4] was 100% and the % of control [5] was 100%.
Compound Cn1cc(-n2cnc3c(NCc4nc5cc(Cl)c(Cl)cc5[nH]4)nc(N4CCOCC4)nc32)cn1 has a % of inhibition [6] of -24% and a % of inhibition [7] of -15.9%.
With O=C(NOC[C@H](O)CO)c1ccc(F)c(F)c1Nc1ccc(I)cc1F the % of control [8] was 100%.
CCc1cc(Nc2nccc(-c3c(-c4ccc(OC)c(C(=O)Nc5c(F)cccc5F)c4)nc4ccccn34)n2)c(OC)cc1N1CCC(N2CCN(S(C)(=O)=O)CC2)CC1 showed a % of inhibition [9] of 37%.
Compound CNC(=O)Nc1ccc(-c2nc(N3CC4CCC(C3)O4)c3cnn(C4CCC5(CC4)OCCO5)c3n2)cc1 has a % of inhibition [10] of 2%, a % of inhibition [11] of 4% and a % of inhibition [12] of -3%.
